Source: ChEMBL document CHEMBL1201862, “PubChem BioAssay data set” (2004)
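Each compound was tested at five concentrations against cells in 96-well plates for 48 hours. At the GI50, growth is halved.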 Calls of active or inactive are those of the source. No stated cut-off is given here; in the data, active = GI50 up to about 1.1 µM and inactive = higher.

Legend:
Experiment in all cases: growth of human tumour cells (NCI), 48 h
786-0 = test system: 786-0
A498 = test system: A498
A549 = test system: A549
ACHN = test system: ACHN
BT-549 = test system: BT-549
CAKI-1 = test system: CAKI-1
CCRF-CEM = test system: CCRF-CEM
COLO 205 = test system: COLO 205
DU-145 = test system: DU-145
EKVX = test system: EKVX
HCC 2998 = test system: HCC 2998
HCT-116 = test system: HCT-116
HCT-15 = test system: HCT-15
HL-60 = test system: HL-60
HOP-62 = test system: HOP-62
HOP-92 = test system: HOP-92
HT-29 = test system: HT-29
Hs-578T = test system: Hs-578T
IGROV-1 = test system: IGROV-1
K562 = test system: K562
KM12 = test system: KM12
LOX IMVI = test system: LOX IMVI
M14 = test system: M14
MCF7 = test system: MCF7
MDA-MB-231 = test system: MDA-MB-231
MDA-MB-435 = test system: MDA-MB-435
MDA-N = test system: MDA-N
MOLT-4 = test system: MOLT-4
Malme-3M = test system: Malme-3M
NCI-H226 = test system: NCI-H226
NCI-H23 = test system: NCI-H23
NCI-H460 = test system: NCI-H460
NCI-H522 = test system: NCI-H522
NCI/ADR-RES = test system: NCI/ADR-RES
OVCAR-3 = test system: OVCAR-3
OVCAR-4 = test system: OVCAR-4
OVCAR-5 = test system: OVCAR-5
OVCAR-8 = test system: OVCAR-8
PC-3 = test system: PC-3
RPMI-8226 = test system: RPMI-8226
RXF 393 = test system: RXF 393
SF-268 = test system: SF-268
SF-295 = test system: SF-295
SF-539 = test system: SF-539
SK-MEL-28 = test system: SK-MEL-28
SK-MEL-2 = test system: SK-MEL-2
SK-MEL-5 = test system: SK-MEL-5
SK-OV-3 = test system: SK-OV-3
SN12C = test system: SN12C
SNB-19 = test system: SNB-19
SNB-75 = test system: SNB-75
SR = test system: SR
SW-620 = test system: SW-620
T47D = test system: T47D
TK-10 = test system: TK-10
U-251 = test system: U-251
UACC-257 = test system: UACC-257
UACC-62 = test system: UACC-62
UO-31 = test system: UO-31

O=C(O)C(=Cc1ccc(-c2ccccc2)cc1)C(=O)O
GI50 (786-0): 14.8 µM (inactive)
GI50 (A498): 19.3 µM (inactive)
GI50 (A549): 18 µM (inactive)
GI50 (ACHN): 18.6 µM (inactive)
GI50 (BT-549): 8.79 µM (inactive)
GI50 (CAKI-1): 14.5 µM (inactive)
GI50 (CCRF-CEM): 4.06 µM (inactive)
GI50 (COLO 205): 11.2 µM (inactive)
GI50 (DU-145): 3.66 µM (inactive)
GI50 (EKVX): > 100 µM (inactive)
GI50 (HCC 2998): 8.73 µM (inactive)
GI50 (HCT-116): 10.4 µM (inactive)
GI50 (HCT-15): 12.2 µM
GI50 (HL-60): 7.53 µM (inactive)
GI50 (HOP-62): 6.75 µM (inactive)
GI50 (HOP-92): 23.8 µM (inactive)
GI50 (HT-29): > 25.8 µM (inactive)
GI50 (Hs-578T): 24.4 µM (inactive)
GI50 (IGROV-1): 23.3 µM (inactive)
GI50 (K562): 5.7 µM (inactive)
GI50 (KM12): 15.6 µM (inactive)
GI50 (LOX IMVI): 9.75 µM (inactive)
GI50 (M14): 12.4 µM (inactive)
GI50 (MCF7): 11.5 µM (inactive)
GI50 (MDA-MB-231): 14.9 µM (inactive)
GI50 (MDA-MB-435): 9.16 µM (inactive)
GI50 (MDA-N): 19.1 µM (inactive)
GI50 (MOLT-4): 15.8 µM (inactive)
GI50 (Malme-3M): 14.7 µM (inactive)
GI50 (NCI-H226): 22 µM (inactive)
GI50 (NCI-H23): 6.87 µM (inactive)
GI50 (NCI-H460): 14.9 µM (inactive)
GI50 (NCI-H522): 6.82 µM (inactive)
GI50 (NCI/ADR-RES): 13.2 µM (inactive)
GI50 (OVCAR-3): 5.53 µM (inactive)
GI50 (OVCAR-4): 15.1 µM (inactive)
GI50 (OVCAR-5): > 39.5 µM (inactive)
GI50 (OVCAR-8): 16.6 µM (inactive)
GI50 (PC-3): 9.08 µM (inactive)
GI50 (RPMI-8226): 4.26 µM (inactive)
GI50 (RXF 393): 4.02 µM (inactive)
GI50 (SF-268): 14.5 µM (inactive)
GI50 (SF-295): 18.6 µM (inactive)
GI50 (SF-539): 4.78 µM (inactive)
GI50 (SK-MEL-28): 15.8 µM (inactive)
GI50 (SK-MEL-2): 6.95 µM (inactive)
GI50 (SK-MEL-5): 11 µM (inactive)
GI50 (SK-OV-3): 12.6 µM (inactive)
GI50 (SN12C): 11.5 µM (inactive)
GI50 (SNB-19): 13.6 µM (inactive)
GI50 (SNB-75): 10.6 µM (inactive)
GI50 (SR): 1.49 µM (inactive)
GI50 (SW-620): 11.3 µM (inactive)
GI50 (T47D): 11 µM (inactive)
GI50 (TK-10): 13.8 µM (inactive)
GI50 (U-251): 12.5 µM (inactive)
GI50 (UACC-257): 11.1 µM (inactive)
GI50 (UACC-62): 12.3 µM (inactive)
GI50 (UO-31): 12.4 µM (inactive)

COc1cccc(Nc2nc(N)nc(N)c2N)c1
GI50 (786-0): 39.7 µM (inactive)
GI50 (A498): > 100 µM (inactive)
GI50 (A549): > 100 µM (inactive)
GI50 (ACHN): 42.6 µM (inactive)
GI50 (BT-549): 35.7 µM (inactive)
GI50 (CAKI-1): 11.8 µM (inactive)
GI50 (CCRF-CEM): 18.5 µM (inactive)
GI50 (COLO 205): 34.4 µM (inactive)
GI50 (DU-145): > 100 µM (inactive)
GI50 (EKVX): > 100 µM (inactive)
GI50 (HCC 2998): 98.2 µM (inactive)
GI50 (HCT-116): 22.2 µM (inactive)
GI50 (HCT-15): 36.9 µM
GI50 (HL-60): 24.2 µM (inactive)
GI50 (HOP-62): 29.3 µM (inactive)
GI50 (HOP-92): > 100 µM (inactive)
GI50 (HT-29): 40.7 µM (inactive)
GI50 (Hs-578T): > 100 µM (inactive)
GI50 (IGROV-1): 35.1 µM (inactive)
GI50 (K562): 37.2 µM (inactive)
GI50 (KM12): > 100 µM (inactive)
GI50 (LOX IMVI): 21.4 µM (inactive)
GI50 (M14): > 100 µM (inactive)
GI50 (MCF7): 30.4 µM (inactive)
GI50 (MDA-MB-231): 22.1 µM (inactive)
GI50 (MDA-MB-435): 39.7 µM (inactive)
GI50 (MDA-N): 19.5 µM (inactive)
GI50 (MOLT-4): 15.4 µM (inactive)
GI50 (Malme-3M): > 100 µM (inactive)
GI50 (NCI-H226): > 100 µM (inactive)
GI50 (NCI-H23): 33.4 µM (inactive)
GI50 (NCI-H460): 20 µM (inactive)
GI50 (NCI-H522): 30 µM (inactive)
GI50 (NCI/ADR-RES): > 100 µM (inactive)
GI50 (OVCAR-3): 42.8 µM (inactive)
GI50 (OVCAR-4): > 100 µM (inactive)
GI50 (OVCAR-5): > 100 µM (inactive)
GI50 (OVCAR-8): 65.2 µM (inactive)
GI50 (PC-3): 99.8 µM (inactive)
GI50 (RPMI-8226): 24.9 µM (inactive)
GI50 (RXF 393): > 100 µM (inactive)
GI50 (SF-268): > 100 µM (inactive)
GI50 (SF-295): 29.7 µM (inactive)
GI50 (SF-539): 40.8 µM (inactive)
GI50 (SK-MEL-28): > 100 µM (inactive)
GI50 (SK-MEL-2): > 100 µM (inactive)
GI50 (SK-MEL-5): 30.3 µM (inactive)
GI50 (SK-OV-3): > 100 µM (inactive)
GI50 (SN12C): 20.1 µM (inactive)
GI50 (SNB-19): > 100 µM (inactive)
GI50 (SNB-75): > 100 µM (inactive)
GI50 (SR): 24 µM (inactive)
GI50 (SW-620): 31.8 µM (inactive)
GI50 (T47D): 35.6 µM (inactive)
GI50 (TK-10): > 100 µM (inactive)
GI50 (U-251): 76.9 µM (inactive)
GI50 (UACC-257): > 100 µM (inactive)
GI50 (UACC-62): 58.2 µM (inactive)
GI50 (UO-31): > 100 µM (inactive)
